# Assay results from patent publication US20230012368A1 (Hoffmann-La Roche Inc., priority 2018, published 2023).
# Counter-ions that a name gives are not always drawn.
# Tested on: Acinetobacter baumannii ATCC 17978
# Assay: Antimicrobial susceptibility testing: 90% growth inhibitory concentration (IC90) determination
# Type: cell-based
# Conditions: 90% growth inhibitory concentration; Acinetobacter baumannii ATCC17978; Iso-Sensitest broth, OD 600 nm over 16h; hydrochloride; read-out: ATCC17978 IC90
# Procedure, shortened: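 Compounds serially twofold diluted (e.g. 50 to 0.097 μM final) in Iso-Sensitest broth, inoculated at ~5×10^(5) CFU/ml, incubated at 35±2° C. OD600 read every 20 minutes over 16h. IC90 taken as concentration inhibiting 90% of growth during logarithmic phase.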
row,Compound,IC90 [nM]
1,"CCc1cc(Nc2nccn3c(-c4ccc(OC)c(F)c4F)cnc23)ccc1C(=O)NCC(O)CN (stereo not drawn) [Example 147, N-(3-amino-2-hydroxy-propyl)-4-[[3-(2,3-difluoro-4-methoxy-phenyl)imidazo[1,2-a]pyrazin-8-yl]amino]-2-ethyl-benzamide;hydrochloride]",450

# Same assay, conditions: 90% growth inhibitory concentration; Acinetobacter baumannii ATCC17978; Iso-Sensitest broth, OD 600 nm over 16h; read-out: ATCC17978 IC90
row,Compound,IC90 [nM]
1,"CCc1cc(Nc2nccn3c(-c4ccc(OC)c(F)c4F)cnc23)ccc1C(=O)NC(CCN)C(F)(F)F (stereo not drawn) [Example 320, N-(4-amino-1,1,1-trifluorobutan-2-yl)-4-[[3-(2,3-difluoro-4-methoxyphenyl)imidazo[1,2-a]pyrazin-8-yl]amino]-2-ethylbenzamide; hydrochloride]",2700
2,"CCc1cc(Nc2nccn3c(-c4ccc(Oc5ncccn5)c(F)c4F)cnc23)ccc1C(=O)NCCNC(=O)[C@H](N)CCNC(=N)N [Example 439, N-[2-[[(2R)-2-amino-4-guanidino-butanoyl]amino]ethyl]-4-[[3-(2,3-difluoro-4-pyrimidin-2-yloxy-phenyl)imidazo[1,2-a]pyrazin-8-yl]amino]-2-ethyl-benzamide; formic acid]",340
3,"COc1ccc(-c2cnc3c(Nc4ccc(C(=O)N(C)CCN5CCNCC5)c(Cl)c4)nccn23)cc1F [Example 90, 2-chloro-4-((3-(3-fluoro-4-methoxyphenyl)imidazo [1,2-a]pyrazin-8-yl)amino)-N-methyl-N-(2-(piperazin-1-yl)ethyl)benzamide hydrochloride]",230
4,"CNCC1CN(CCN(C)C(=O)c2ccc(Nc3nccn4c(-c5ccc(OC)c(F)c5)cnc34)cc2C)CCO1 (stereo not drawn) [Example 109, 4-[[3-(3-fluoro-4-methoxy-phenyl)imidazo[1,2-a]pyrazin-8-yl]amino]-N,2-dimethyl-N-[2-[2-(methylaminomethyl)morpholin-4-yl]ethyl]benzamide hydrochloride]",960

# Same assay, conditions: Acinetobacter baumannii, ATCC17978, 16 h, 90% growth inhibitory concentration; Acinetobacter baumannii ATCC17978; Iso-Sensitest broth, OD 600 nm over 16h; read-out: ATCC17978 IC90
row,Compound,IC90 [nM]
1,"CCc1cc(Nc2nccn3c(-c4ccc(O)c(F)c4F)cnc23)ccc1C(=O)NCCCN [Example 289, N-(3-aminopropyl)-4-[[3-(2,3-difluoro-4-hydroxyphenyl)imidazo[1,2-a]pyrazin-8-yl]amino]-2-ethylbenzamide;hydrochloride]",4600
2,"CCc1cc(Nc2nccn3c(-c4ccc(OC)c(F)c4F)cnc23)ccc1C(=O)NCCNC(=O)CCCN [Example 360, N-[2-(4-aminobutanoylamino)ethyl]-4-[[3-(2,3-difluoro-4-methoxyphenyl)imidazo[1,2-a]pyrazin-8-yl]amino]-2-ethylbenzamide]",70
3,"CCc1cc(Nc2nccn3c(-c4ccc(OC)c(F)c4F)cnc23)ccc1C(=O)NCCNC(=O)C(CNC(=N)N)NC(=O)[C@@H](N)CCC(=O)O (mixture of isomers) [Example 461, (4S)-4-amino-5-((1-((2-(4-((3-(2,3-difluoro-4-methoxyphenyl)imidazo[1,2-a]pyrazin-8-yl)amino)-2-ethylbenzamido)ethyl)amino)-3-guanidino-1-oxopropan-2-yl)amino)-5-oxopentanoic acid trihydrochloride]",480
4,"CCc1cc(Nc2nccn3c(-c4ccc(OC)c(F)c4F)cnc23)ccc1C(=O)NCC1CCCN1 (stereo not drawn) [Example 527, 4-((3-(2,3-difluoro-4-methoxyphenyl)imidazo[1,2-a]pyrazin-8-yl)amino)-2-ethyl-N-(pyrrolidin-2-ylmethyl)benzamide hydrochloride]",480
5,"COc1ccc(-c2cnc3c(Nc4cc(C)c(C(=O)NCCN)c(F)c4)nccn23)c(F)c1F [Example 467, N-(2-aminoethyl)-4-((3-(2,3-difluoro-4-methoxyphenyl)imidazo[1,2-a]pyrazin-8-yl)amino)-2-fluoro-6-methylbenzamide]",630
6,"CCc1cc(Nc2nccn3c(-c4ccc(OC(F)F)c(F)c4F)cnc23)ccc1C(=O)NCCCCCN [Example 96, N-(5-aminopentyl)-4-((3-(4-(difluoromethoxy)-2,3-difluorophenyl)imidazo [1,2-a]pyrazin-8-yl)amino)-2-ethylbenzamide hydrochloride]",70
7,"CCc1cc(Nc2nccn3c(-c4ccc(Oc5ccccn5)c(F)c4F)cnc23)ccc1C(=O)NCCCC(=O)N1CCN[C@H](CO)C1 [Example 476, 4-[[3-[2,3-difluoro-4-(2-pyridyloxy)phenyl]imidazo [1,2-a]pyrazin-8-yl]amino]-2-ethyl-N-[4-[(3S)-3-(hydroxymethyl)piperazin-1-yl]-4-oxo-butyl]benzamide]",360
8,"Cc1cc(Nc2nccn3c(-c4ccc(OCC#N)c(F)c4F)cnc23)ccc1C(=O)NCCCNC(=O)[C@@H]1C[C@](C)(O)CN1 [Example 134, (2S,4S)-N-[3-[[4-[[3-[4-(cyanomethoxy)-2,3-difluoro-phenyl]imidazo[1,2-a]pyrazin-8-yl]amino]-2-methyl-benzoyl]amino]propyl]-4-hydroxy-4-methyl-pyrrolidine-2-carboxamide formate]",80
9,"COc1ccc(-c2cnc3c(Nc4ccc5c(c4)CCNC5=O)nccn23)c(Cl)c1 [Example 179, 6-[[3-(2-chloro-4-methoxyphenyl)imidazo[1,2-a]pyrazin-8-yl]amino]-3,4-dihydro-2H-isoquinolin-1-one]",1700
10,"COc1ccc(-c2cnc3c(Nc4ccc5c(c4)CCN(C)C5=O)nccn23)c(F)c1F [Example 391, 6-[[3-(2,3-difluoro-4-methoxy-phenyl)imidazo[1,2-a]pyrazin-8-yl]amino]-2-methyl-3,4-dihydroisoquinolin-1-one]",51
11,"CCc1cc(Nc2nccn3c(-c4ccc(OC)c(F)c4F)cnc23)ccc1C(=O)NCC(C)(C)CN [Example 98, N-(3-amino-2,2-dimethylpropyl)-4-((3-(2,3-difluoro-4-methoxyphenyl)imidazo [1,2-a]pyrazin-8-yl)amino)-2-ethylbenzamide hydrochloride]",780
12,"CCc1cc(Nc2nccn3c(-c4ccc(OC)c(F)c4F)cnc23)ccc1C(=O)NCCNC(=O)[C@@H](N)CCCCN [Example 398, N-[2-[[(2S)-2,6-diaminohexanoyl]amino]eth-yl]-4-[[3-(2,3-difluoro-4-methoxy-phenyl)imidazo[1,2-a]pyrazin-8-yl]amino]-2-ethyl-benzamide; formic acid]",410
13,"COc1ccc(-c2cnc3c(Nc4ccc(C(=O)N[C@@H](C)CN)c(C)c4)nccn23)c(F)c1F [Example 508, #N!-[(2#S!)-1-aminopropan-2-yl]-4-[[3-(2,3-difluoro-4-methoxyphenyl)imidazo[1,2-a]pyrazin-8-yl]amino]-2-methylbenzamide;dihydrochlo-ride]",320
14,"CCc1cc(Nc2nccn3c(-c4ccc(Oc5ccncn5)c(F)c4F)cnc23)ccc1C(=O)NCCNC(=O)[C@H](N)CCCNC(=N)N [Example 433, N-[2-[[(2R)-2-amino-5-guanidino-pentanoyl]amino]ethyl]-4-[[3-(2,3-difluoro-4-pyrimidin-4-yloxy-phenyl)imidazo[1,2-a]pyrazin-8-yl]amino]-2-ethyl-benzamide; formic acid]",460
15,"COc1ccc(-c2cnc3c(Nc4ccc(C(=O)N(C)Cc5ccncn5)c(C)c4)nccn23)cc1F [Example 39, 4-[[3-(3-fluoro-4-methoxy-phenyl)imidazo[1,2-a]pyrazin-8-yl]amino]-N,2-dimethyl-N-(pyrimidin-4-ylmethyl)benzamide]",240
16,"CCc1cc(Nc2nccn3c(-c4ccc(OCC#N)c(F)c4F)cnc23)ccc1C(=O)NCCNC(=O)[C@@H](N)[C@@H](C)O [Example 138, N-[2-[[(2S,3R)-2-amino-3-hydroxy-butanoyl]amino]ethyl]-4-[[3-[4-(cyanomethoxy)-2,3-difluoro-phenyl]imidazo[1,2-a]pyrazin-8-yl]amino]-2-ethyl-benzamide formate]",100
17,"CNC(=O)c1ccc(Nc2nccn3c(-c4ccc(OC(F)F)cc4)cnc23)cc1C(C)C [Example 166, 4-[[3-[4-(difluoromethoxy)phenyl]imidazo[1,2-a]pyrazin-8-yl]amino]-2-isopropyl-N-methyl-benzamide]",980
18,"CCc1cc(Nc2nccn3c(-c4ccc(Oc5nccc(OC)n5)c(F)c4F)cnc23)ccc1C(=O)N[C@@H](C)CN [Example 462, (S)-N-(1-aminopropan-2-yl)-4-((3-(2,3-difluoro-4-((4-methoxypyrimidin-2-yl)oxy)phenyl)imidazo[1,2-a]pyrazin-8-yl)amino)-2-ethylbenzamide]",520
19,"CNC(=O)c1ccc(Nc2nccn3c(-c4ccc(Cl)cc4)cnc23)cc1C [Example 185, 4-[[3-(4-chlorophenyl)imidazo[1,2-a]pyrazin-8-yl]amino]-N,2-dimethylbenzamide]",230
20,"CCc1cc(Nc2nccn3c(-c4ccc(OC(F)F)c(F)c4F)cnc23)ccc1C(=O)NCC(=O)NCCN(C)C [Example 404, 4-((3-(4-(difluoromethoxy)-2,3-difluorophenyl)imidazo[1,2-a]pyrazin-8-yl)amino)-N-(2-((2-(dimethylamino)ethyl)amino)-2-oxoethyl)-2-ethylbenzamide]",360
21,"CCc1cc(Nc2nccn3c(-c4ccc(OCC#N)c(F)c4F)cnc23)ccc1C(=O)NCCNC(=O)[C@@H](N)CO [Example 135, N-[2-[[(2S)-2-amino-3-hydroxy-propanoyl]amino]ethyl]-4-[[3-[4-(cyanomethoxy)-2,3-difluoro-phenyl]imidazo[1,2-a]pyrazin-8-yl]amino]-2-ethyl-benzamide formate]",90
22,"Cc1cc(Nc2nccn3c(-c4ccc(OC(F)F)cc4)cnc23)ccc1C(=O)N(C)CCN1CCOCC1 [Example 250, 4-[[3-[4-(difluoromethoxy)phenyl]im-idazo[1,2-a]pyrazin-8-yl]amino]-N,2-dimethyl-N-(2-morpholin-4-ylethyl)benzamide]",1200
